Where a SMILES comes first, the peptide text is derived from it. Bridges are numbered along the chain shown (N, C = ends). [ ]: non-standard residue; d: D form. The star is where a group is joined. hPhe(3-Cl-4-CF3) = N[C@@H](CCc1ccc(C(F)(F)F)c(Cl)c1)C(=O)O; NPrPhe(4-CF3) = CCCN[C@@H](Cc1ccc(C(F)(F)F)cc1)C(=O)O; NMeGly(cPent) = CN[C@H](C(=O)O)C1CCCC1; NMeD = CN[C@@H](CC(=O)O)C(=O)O; NMeL = CN[C@@H](CC(C)C)C(=O)O; NMeAbu = CC[C@H](NC)C(=O)O; NMeS = CN[C@@H](CO)C(=O)O; Morpholide = C1CN(*)CCO1; Ac5c = NC1(C(=O)O)CCCC1; Ac4c = NC1(C(=O)O)CCC1; Sar = CNCC(=O)O
Legend:
[1] = target: GDP-bound KRAS wild-type protein (Homo sapiens, UniProt P01116); assay: Binding to KRAS by surface plasmon resonance (SPR), Single Cycle Kinetics; conditions: SPR, Single Cycle Kinetics, GDP-bound KRAS wild-type protein; read-out: KRAS KD
Sequence of GDP-bound KRAS wild-type protein (P01116 whole entry): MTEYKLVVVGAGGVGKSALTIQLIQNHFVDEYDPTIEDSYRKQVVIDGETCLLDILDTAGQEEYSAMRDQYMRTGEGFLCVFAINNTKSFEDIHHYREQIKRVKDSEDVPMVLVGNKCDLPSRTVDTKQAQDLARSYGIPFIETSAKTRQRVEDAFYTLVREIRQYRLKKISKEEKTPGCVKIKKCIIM

[2] = target: GDP-bound NRAS wild-type protein (Homo sapiens, UniProt P01111); assay: Binding to NRAS by surface plasmon resonance (SPR), Single Cycle Kinetics; conditions: ratio of KD for GDP-bound NRAS wild-type protein to KD for KRAS, SPR
Sequence of GDP-bound NRAS wild-type protein (P01111 whole entry): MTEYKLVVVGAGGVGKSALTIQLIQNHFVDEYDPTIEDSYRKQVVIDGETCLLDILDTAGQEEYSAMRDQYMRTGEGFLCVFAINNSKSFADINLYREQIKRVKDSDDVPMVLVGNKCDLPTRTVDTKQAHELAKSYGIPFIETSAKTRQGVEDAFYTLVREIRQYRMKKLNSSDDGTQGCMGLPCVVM

[3] = target: GDP-bound HRAS wild-type protein (Homo sapiens, UniProt P01112); assay: Binding to HRAS by surface plasmon resonance (SPR), Single Cycle Kinetics; conditions: ratio of KD for GDP-bound HRAS wild-type protein to KD for KRAS, SPR
Sequence of GDP-bound HRAS wild-type protein (P01112 whole entry): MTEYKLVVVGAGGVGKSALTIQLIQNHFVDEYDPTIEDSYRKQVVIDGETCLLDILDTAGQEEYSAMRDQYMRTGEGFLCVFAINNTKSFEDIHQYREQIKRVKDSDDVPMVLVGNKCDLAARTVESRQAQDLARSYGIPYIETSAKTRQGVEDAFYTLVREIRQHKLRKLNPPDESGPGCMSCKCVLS

[4] = system: human lung cancer strain NCI-H441; assay: cells; conditions: NCI-H441, 96 h, read-out: NCI-H441 IC50 (nM), NCI-H441 cell proliferation, 4 days, CellTiter-Glo;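 also: cell proliferation inhibition after four days measured by CellTiter-Glo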

| Compound | Kd [1] [nM] | IC50 [4] [nM] | NRAS/KRAS (KD ratio) [2] | HRAS/KRAS (KD ratio) [3] |
| --- | --- | --- | --- | --- |
| CCO[C@@H]1C[C@H]2C(=O)NC3(CC(C)(C)C3)C(=O)N(C)[C@@H](C3CCCC3)C(=O)N(C)[C@H](C(=O)N(C)CC)CC(=O)N(C)[C@@H](CC)C(=O)N[C@@H]([C@@H](C)CC)C(=O)N(C)CC(=O)N(C)[C@H]3C/C=C\CCN(C3=O)[C@@H](Cc3ccc(C(F)(F)F)cc3)C(=O)N(C)CC(=O)N[C@@H](CCc3ccc(C(F)(F)F)c(OC)c3)C(=O)N2C1 [PP1653] | 0.097 | 1.6 | A (a compound having 10 or more and less than 20 is denoted as A) | A (a compound having 10 or more and less than 20 is denoted as A) |
| CCCN(C)C(=O)[C@@H]1CC(=O)N(C)[C@@H](COC)C(=O)N[C@@H]([C@@H](C)CC)C(=O)N(C)CC(=O)N(C)[C@H]2C/C=C\CCN(C2=O)[C@@H](Cc2ccc(C(F)(F)F)cc2)C(=O)N(C)CC(=O)N[C@@H](CCc2ccc(C(F)(F)F)c(OC)c2)C(=O)N2C[C@H](OCC)C[C@H]2C(=O)NC2(CC(C)(C)C2)C(=O)N(C)[C@@H](C2CCCC2)C(=O)N1C [PP1656] | 0.065 | 1.5 | AA (a compound having 20 or more is denoted as AA) | A (a compound having 10 or more and less than 20 is denoted as A) |
| CCC[C@H]1C(=O)N[C@@H]([C@@H](C)CC)C(=O)N(C)CC(=O)N(C)[C@H]2C/C=C\CCN(C2=O)[C@@H](Cc2ccc(C(F)(F)F)cc2)C(=O)N(C)CC(=O)N[C@@H](CCc2cc(F)c(C(F)(F)F)c(F)c2)C(=O)N2CC(F)(F)C[C@H]2C(=O)NC2(CC(C)(C)C2)C(=O)N(C)[C@@H](C2CCCC2)C(=O)N(C)[C@H](C(=O)N(C)C)CC(=O)N1C [PP1711] | 0.093 | 5 | A (a compound having 10 or more and less than 20 is denoted as A) | B (a compound having 3 or more and less than 10 is denoted as B) |
| CCO[C@@H]1C[C@H]2C(=O)NC3(CC(F)(F)C3)C(=O)N(C)[C@@H](C(CC)CC)C(=O)N3CCC[C@@H]3CC(=O)N(C)[C@@H](CC3CC3)C(=O)N[C@@H]([C@@H](C)CC)C(=O)N(C)CC(=O)N(C)[C@H]3C/C=C\CCN(C3=O)[C@@H](Cc3ccc(C(F)(F)F)cc3)C(=O)N(C)CC(=O)N[C@@H](CCc3cc(F)c(C(F)(F)F)c(F)c3)C(=O)N2C1 [PP1614] | 1.1 | 54.2 | A (a compound having 10 or more and less than 20 is denoted as A) | A (a compound having 10 or more and less than 20 is denoted as A) |
| CC[C@H](C)[C@@H]1NC(=O)[C@H](CC)N(C)C(=O)C[C@@H](C(=O)N(C)C)N(C)C(=O)[C@H](C2CCCC2)N(C)C(=O)C2(CCCC2)N(C)C(=O)[C@@H]2C[C@@H](C)CN2C(=O)[C@H](CCc2cc(F)c(C(F)(F)F)c(F)c2)NC(=O)CN(C)C(=O)[C@H](Cc2ccc(C)cc2)N2CC/C=C\C[C@@H](C2=O)N(C)C(=O)[C@@H]2CCCN2C1=O [PP1814] | 0.27 | 26.2 | A (a compound having 10 or more and less than 20 is denoted as A) | A (a compound having 10 or more and less than 20 is denoted as A) |
| CC[C@H](C)[C@@H]1NC(=O)[C@H](CC2CC2)N(C)C(=O)C[C@@H](C(=O)N(C)C)N(C)C(=O)[C@H](C2CCCC2)N(C)C(=O)C2(CCC2)N(C)C(=O)[C@@H]2CCCN2C(=O)[C@H](CCc2cc(F)c(C(F)(F)F)c(F)c2)NC(=O)CN(C)C(=O)[C@H](Cc2ccc(C)cc2)N2CC/C=C\C[C@@H](C2=O)N(C)C(=O)[C@@H]2CCCN2C1=O [PP1798] | 0.15 | 7.8 | A (a compound having 10 or more and less than 20 is denoted as A) | B (a compound having 3 or more and less than 10 is denoted as B) |
| CCCOC[C@H]1C(=O)N[C@@H]([C@@H](C)CC)C(=O)N(C)CC(=O)N(C)[C@H]2C/C=C\CCN(C2=O)[C@@H](Cc2ccc(C(F)(F)F)cc2)C(=O)N(C)CC(=O)N[C@@H](CCc2ccc(C(F)(F)F)c(OC)c2)C(=O)N2C[C@H](OCC)C[C@H]2C(=O)NC2(CC(C)(C)C2)C(=O)N(C)[C@@H](C2CCCC2)C(=O)N(C)[C@H](C(=O)N(C)C)CC(=O)N1C [PP1657] | 0.06 | 2 | A (a compound having 10 or more and less than 20 is denoted as A) | B (a compound having 3 or more and less than 10 is denoted as B) |
| CCC[C@H]1C(=O)N[C@@H]([C@@H](C)CC)C(=O)N(C)CC(=O)N(C)[C@H]2C/C=C\CCN(C2=O)[C@@H](Cc2ccc(C(F)(F)F)cc2)C(=O)N(C)CC(=O)N[C@@H](CCc2cc(F)c(C(F)(F)F)c(F)c2)C(=O)N2C[C@H](F)C[C@H]2C(=O)NC2(CC(C)(C)C2)C(=O)N(C)[C@@H](C2CCCC2)C(=O)N(C)[C@H](C(=O)N(C)C)CC(=O)N1C [PP1689] | 0.023 | 1.4 | A (a compound having 10 or more and less than 20 is denoted as A) | B (a compound having 3 or more and less than 10 is denoted as B) |

Further lines, with some results ahead:

| Kd [1] [nM] | IC50 [4] [nM] | Compound | NRAS/KRAS (KD ratio) [2] | HRAS/KRAS (KD ratio) [3] |
| --- | --- | --- | --- | --- |
| 0.31 | 32.4 | CCCN1C(=O)CN(C)C(=O)CN(C)C(=O)[C@H]([C@@H](C)CC)NC(=O)[C@H](CC(C)C)N(C)C(=O)C[C@@H](C(=O)N2CCOCC2)N(C)C(=O)[C@H](C2CCCC2)N(C)C(=O)C2(CCCC2)NC(=O)[C@H](COC)N(C)C(=O)[C@H](CCc2ccc(C(F)(F)F)c(Cl)c2)NC(=O)CN(C)C(=O)[C@@H]1Cc1ccc(C(F)(F)F)cc1 [PP1920] ([NMeL]I[Sar][Sar][NPrPhe(4-CF3)][Sar][hPhe(3-Cl-4-CF3)][NMeS](Me)[Ac5c][NMeGly(cPent)][NMeD]-Morpholide; lactam N-11) | B (a compound having 3 or more and less than 10 is denoted as B) | C (A compound having a KD ratio of 0.1 or more and less than 3 is denoted as C) |
| 0.34 | 11.3 | CC[C@H](C)[C@@H]1NC(=O)[C@H](C(C)C)N(C)C(=O)C[C@@H](C(=O)N(C)CC)N(C)C(=O)[C@H](C2CCCC2)N(C)C(=O)C2(CC(C)(C)C2)NC(=O)[C@@H]2C[C@H](C)CN2C(=O)[C@H](CCc2ccc(C(F)(F)F)c(OC)c2)NC(=O)CN(C)C(=O)[C@H](Cc2ccc(C(F)(F)F)cc2)N2CC/C=C\C[C@@H](C2=O)N(C)C(=O)CN(C)C1=O [PP2003] | A (a compound having 10 or more and less than 20 is denoted as A) | B (a compound having 3 or more and less than 10 is denoted as B) |
| 0.097 | 11.6 | CCCN(C)C(=O)[C@@H]1CC(=O)N(C)[C@@H](COCC)C(=O)N[C@@H]([C@@H](C)CC)C(=O)N(C)CC(=O)N(C)[C@H]2C/C=C\CCN(C2=O)[C@@H](Cc2ccc(C(F)(F)F)cc2)C(=O)N(C)CC(=O)N[C@@H](CCc2ccc(C(F)(F)F)c(OC)c2)C(=O)N2C[C@H](OCC)C[C@H]2C(=O)NC2(CC(C)(C)C2)C(=O)N(C)[C@@H](C2CCCC2)C(=O)N1C [PP2012] | AA (a compound having 20 or more is denoted as AA) | A (a compound having 10 or more and less than 20 is denoted as A) |
| 0.15 | 13.1 | CCC[C@H]1C(=O)N[C@@H]([C@@H](C)CC)C(=O)N(C)CC(=O)N(C)[C@H]2C/C=C\CCN(C2=O)[C@@H](Cc2ccc(C(F)(F)F)cc2)C(=O)N(C)CC(=O)N[C@@H](CCc2ccc(Cl)c(Cl)c2)C(=O)N2C[C@H](OCC)C[C@H]2C(=O)NC2(CC(C)(C)C2)C(=O)N(C)[C@@H](C2CCCC2)C(=O)N(C)[C@H](C(=O)N(C)C)CC(=O)N1C [PP1932] | A (a compound having 10 or more and less than 20 is denoted as A) | A (a compound having 10 or more and less than 20 is denoted as A) |
| 0.19 | 32.8 | CCCN1C(=O)CN(C)C(=O)CN(C)C(=O)[C@H]([C@@H](C)CC)NC(=O)[C@H](CC(C)C)N(C)C(=O)C[C@@H](C(=O)N2CCOCC2)N(C)C(=O)[C@H](C2CCCC2)N(C)C(=O)C2(CCC2)NC(=O)[C@H](CC)N(C)C(=O)[C@H](CCc2ccc(C(F)(F)F)c(Cl)c2)NC(=O)CN(C)C(=O)[C@@H]1Cc1ccc(C(F)(F)F)cc1 [PP1918] ([NMeL]I[Sar][Sar][NPrPhe(4-CF3)][Sar][hPhe(3-Cl-4-CF3)][NMeAbu][Ac4c][NMeGly(cPent)][NMeD]-Morpholide; lactam N-11) | B (a compound having 3 or more and less than 10 is denoted as B) | C (A compound having a KD ratio of 0.1 or more and less than 3 is denoted as C) |

Reference: US20240158446A1, “CYCLIC COMPOUND HAVING SELECTIVE INHIBITORY ACTION ON KRAS OVER HRAS AND NRAS” (CHUGAI SEIYAKU KABUSHIKI KAISHA, priority 2021, published 2024)
